Measured values as given in US11530226B2, “Azepane inhibitors of menin-MLL interaction” (Janssen Pharmaceutica NV, priority 2016, dated 2022).
Like-named read-outs stand apart in the source and are kept apart here.

Legend:
[1] = target: T1, terbium chelate-labeled menin / FITC-MBM1 peptide (Menin/MLL) (Homo sapiens, UniProt O00255, T541A); experiment: Menin/MLL homogenous time-resolved fluorescence (HTRF) assay; type: binding; conditions: read-out: (2) Menin HTRF assay (IC50 (nM))
T1 construct: Menin (a. a. l-610-6×his tag) was labeled with terbium cryptate as follows
T1 sequence (O00255 with tags, fused parts or gaps T541A): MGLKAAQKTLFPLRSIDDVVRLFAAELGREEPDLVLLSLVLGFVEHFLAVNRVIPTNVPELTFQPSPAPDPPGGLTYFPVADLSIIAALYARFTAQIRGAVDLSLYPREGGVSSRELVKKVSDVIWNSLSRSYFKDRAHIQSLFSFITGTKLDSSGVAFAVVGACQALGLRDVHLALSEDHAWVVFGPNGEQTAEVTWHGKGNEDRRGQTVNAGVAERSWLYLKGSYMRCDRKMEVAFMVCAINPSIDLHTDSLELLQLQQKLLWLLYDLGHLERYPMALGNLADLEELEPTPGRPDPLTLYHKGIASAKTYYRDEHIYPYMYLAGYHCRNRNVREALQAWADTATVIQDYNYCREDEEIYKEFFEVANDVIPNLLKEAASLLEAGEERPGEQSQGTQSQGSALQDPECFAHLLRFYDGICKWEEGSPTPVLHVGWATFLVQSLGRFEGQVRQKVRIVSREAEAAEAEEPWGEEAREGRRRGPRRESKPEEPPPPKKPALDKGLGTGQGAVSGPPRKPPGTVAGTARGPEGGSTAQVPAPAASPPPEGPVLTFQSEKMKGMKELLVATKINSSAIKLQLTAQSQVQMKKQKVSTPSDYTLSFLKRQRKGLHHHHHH
Procedure, shortened: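 Terbium cryptate-labeled menin (aa 1-610, 6×His), 100 pM, preincubated 5 min with compound, then 75 nM FITC-MBM1 peptide added for 15 min at ambient temperature. Buffer: 40 mM Tris pH 7.5, 50 mM NaCl, 1 mM DTT, 0.05% Pluronic F-127, 0.5% DMSO. HTRF 520/490 ratio; 11-point threefold titration from 25 μM, IC50 from % inhibition curve.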

MV-4-1 1 cells (MLL-AF4) = experiment: Proliferation assay (spheroid-like growth, 8 d, live-cell imaging), MV-4-11; type: cell-based, human; conditions: MV-4-11 cells, absolute IC50 from AUC of confluence, read-out: (3) Spheroid assay MV-4-11 (IC50 (μM))
Procedure, shortened: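 Cells seeded in ultra-low attachment wells (1,500 MV-4-11, 300 MOLM14, 750 K562) with compound, 0.3% DMSO, grown 8 d at 37° C. Confluence imaged every four hours; AUC of confluence versus time, relative to vehicle, fitted for absolute IC50.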

SMILES | IC50 [1] | IC50 (MV-4-1 1 cells (MLL-AF4)) | IC50 (MV-4-1 1 cells (MLL-AF4); Homo sapiens, MV4-11, 192 h)
CC(C)CNC1CCCN(c2ncnc3sc(CC(F)(F)F)cc23)CC1 (single isomer, unassigned) [Compound B1A, N-isobutyl-1-(6-(2,2,2-trifluoroethyl)thieno[2,3-d]pyrimidin-4-yl)azepan-4-amine] | 50 nM | 2.5 µM | 
CC(C)CNC1CCCN(c2ncnc3sc(CC(F)(F)F)cc23)CC1 (single isomer, unassigned) [Compound B1B, N-isobutyl-1-(6-(2,2,2-trifluoroethyl)thieno[2,3-d]pyrimidin-4-yl)azepan-4-amine] | 788 nM | 8.9 µM | 
FC(F)(F)Cc1cc2c(N3CCC[C@@H](NCc4ccccc4)CC3)ncnc2s1 [Compound 3, (R)N-benzyl-1-(6-(2,2,2-trifluoroethyl)thieno[2,3-d]pyrimidin-4-yl)azepan-4-amine] | 14 nM |  | 0.44 µM
FC(F)(F)Cc1cc2c(N3CCC[C@H](NCc4ccccc4)CC3)ncnc2s1 [Compound 4, (S)-N-benzyl-1-(6-(2,2,2-trifluoroethyl)thieno[2,3-d]pyrimidin-4-yl)azepan-4-amine] | 330 nM |  | 2.9 µM
